Measured values: PMC7934871 (JCI Insight, 2021)
Non-standard residues stand in square brackets, D forms with d. No end group written: not given here. pY = N[C@@H](Cc1ccc(OP(=O)(O)O)cc1)C(=O)O

Key:
[1] = test system: HCT116 cells; assay type: cell-based, human
Protocol: Bis-(1,3-Dibutylbarbituric Acid) Trimethine Oxonol [DiBAC4(3)]
Supplemental Figure 3 (related to Figure 1). The potential mechanism of PS-oligo
mediated cell penetration.
penetration was assessed by flow cytometry. SD is shown. Unpaired student t-test. ****
P< 0.001. Data shown is the representative of 3 independent experiments.
(B) HCT116 cells were pre-treated with a variety of endocytosis inhibitors prior to
treating with FAM-labeled PS-acet.-STAT3 peptide. The graph represents the statistical
analysis of the fluorescence intensity (M.F.I) of FAM-labeled peptide shown in A. SD is
shown. n= 5 independent experiments. Unpaired student t-test. **** P< 0.001.
(C) Polarization of cell membrane contributes to penetration of PS-acet.-STAT3
peptide. Cell membrane was depolarized by adding 120 mM KCl to HCT116 for 2.5 h,
followed by incubation with the peptide (upper panel). Data is representative of 4
independent experiments. Depolarization of the cell membrane was confirmed by
applying 2.5 mM DiBAC4(3) to other cells (lower panel). n= 3 independent experiments.
Penetration was assessed by flow cytometry. The right panels show the mean of
fluorescence intensity (M.F.I) quantified by FlowJo software. SD is shown. Unpaired
student t-test. *, P<0.05; *** P< 0.005.
Aftabizadeh and Li et al., Figure S3

[2] = test system: KPC mouse PDAC cells; assay: KPC mouse PDAC tumor model in C57BL/6 mice; assay type: in vivo; details: KPC s.c. in C57BL/6 mice, i.v. 1 mg/kg every other day for 18 days (combination 0.5 mg/kg each), n = 5
Protocol: SD is shown. […] SD is shown.
Mouse care and experimental procedures were performed under pathogen-free conditions in accordance with established institutional guidance and approved IACUC protocols from Research Animal Care Committee of the City of Hope. For s.c. tumor challenge, 5 × 10^6 HCT116 cells were injected into NSG mice from The Jackson Laboratory or animal resource core facility at the City of Hope. After tumors reached an average size of 80~100 mm^3, mice were locally or intravenously treated with 1 mg/kg of PO- or PS-peptides (Anaspec) every day or every other day. Control animals were treated with the equal volume of HBSS (Invitrogen, Thermo Fisher Scientific). Tumor growth was measured by a digital caliper every other day. To study the effects of the modified peptides at protein and gene levels, mice were euthanized 4–6 weeks after tumor injection. B16 melanoma lung metastasis was performed by injecting 0.5 × 10^6 B16 cells into bloodstream of C57BL/6 mice (The Jackson Laboratory). One day after tumor challenge, mice were treated intravenously (retro-orbitally) with 1 mg/kg of PO- or PS-acet.-STAT3, PS-unacet.-STAT3, or PS-STAT3-K685R peptides every other day until the endpoint as indicated. […] Lungs were then analyzed for immune responses by immunostaining followed by confocal imaging. […] Tumor growth was measured by a digital caliper every other day. […]

[3] = test system: cancer cells; assay: Confocal microscopy of peptide localisation; assay type: cell-based; details: 1 μM, 1 hour
Protocol: Figure 8 PS-Gp130 and PS-MYC blocking peptides efficiently internalize into tumor cells to exert their functions. (A) For 1 hour 1 μM of PS-conjugated MYC (PS-MYC) and Gp130 (PS-Gp130) were incubated with cancer cells. PS-scramble MYC (PS-SC-MYC) was used as a control for PS-MYC. The peptide uptake was visualized by confocal microscopy and quantified by flow cytometry. Data are representative of 3 independent experiments (n = 3). (B) Upper panel: The binding of PS-Gp130 and STAT3 was examined by immunoprecipitation and Western blotting. PO-Gp130 was used as a control. For 4 hours prior to harvest, 1 μM of peptide was incubated with cells. Lower panel: PS-Gp130 inhibits IL-6–induced phosphorylation of STAT3 and p44/42 but not EGF-mediated signaling. The cells were preincubated with PS-Gp130 for 2 hours and then stimulated with 20 ng/mL of IL-6 or 30 ng/mL of EGF for 30 minutes before harvest and Western blotting. (C) Gene expression of STAT3 targets was examined by quantitative PCR after the treatment with 1 μM of PS-Gp130 with or without IL-6 stimulation as described above. Data shown are 3 independent experiments (n = 3); SD is shown. Unpaired Student’s t test; ***P < 0.005; **P < 0.01; *P < 0.05. (D) A total of 1 μM of PS-SC-MYC or PS-MYC was incubated with cells for 48 hours before the gene expression of MYC targets was examined by quantitative PCR. […]

Row | Substance | peptide penetration in presence of dextran sulfate [1] | PDAC tumor growth [2] | intracellular localisation / retention of peptide [3]
1 | PDIPKEEAFGK685(Ac)YCRPESQEHPC-linker-T*C*C*A*T*G*A*G*C*T*T*C*C*T*G*A*T*G*C*T [PS-acet.-STAT3 peptide] | partially | – | –
2 | PS-Gp130: PS-conjugated Gp130 peptide (amino acids 901–910) with phospho-Tyr905 (MPKS[pY]LPQTV; also: phosphorothioate oligonucleotide conjugate; UniProt P40189 901-910, looked up, fragment) | – | significantly inhibited | detected in the cytoplasm or associated with the membrane
